Data set [1] has as its system alpha cells. Kind of data set: Alpha cell numbers in cultured dissociated rat islet cells. Format: cell-based. As to conditions: HC-containing medium; control 40±3%. From the text: We next tested cell type-specificity of HC-induced proliferation by using dissociated rat islet cells containing 15-20% alpha cells and 10-15% other cell types. […] Non-endocrine pancreatic cells were virtually undetectable on day 15, presumably died out due to the serum-free culture conditions.

Data set [2] concerns INS1 832/13 cell line. The experiment in a line: Proliferation of INS1 832/13 cell line in serum-free medium. The format is cell-based. Particulars: serum-free culture medium; data not shown.
The subject of data set [3] is rat beta cells. Kind of data set: Beta cell viability / cell death (propidium iodide assay). Format: cell-based. Particulars: LOPAC screen at 1 μM; adult rat beta cells; day 6; control medium 97. From the text:
Numbers of living beta cells were obtained by subtracting the PI-positive cell numbers from the Ho-positive cell numbers, and correcting for the percent insulin-negative cells, as determined following insulin-immunofluorescence staining. They were expressed as percent of the numbers on day 1. […] To detect beta cells that underwent two successive cycles, cells were sequentially exposed to two different thymidine-analogs, first EdU from day 3 to 6, and then BrdU (100 μmol/l) from day 7 to 10, with a 24-hour label-free period in between. EdU-positive (EdU^+) nuclei were detected with the Click-iT Assay kit (Invitrogen), while BrdU-positive (BrdU^+) nuclei were identified with anti-BrdU antibody.
Absolute number of cells was determined by whole-well imaging using the BD-PathwayBioimager855 (BD-Biosciences). IPLab and AttoVision software packages (BD-Biosciences) were used for image background subtraction, segmentation and quantification.
Freshly purified beta cells were cultured in control medium for 24 h prior to the addition of the LOPAC test compounds (day 1). The culture medium was refreshed on day 3 and the cells were then cultured further with 5-ethynyl-2′-deoxyuridine (EdU; 10 μM) up to day 6. […] Thus, a compound is considered a hit only if it increases the percent EdU incorporation to above three standard deviation of the plate-averaged percent EdU incorporation.

The test system of data set [4] is rat beta cells. The experiment in a line: Cellular insulin content, insulin release and glucose-stimulated insulin secretion of cultured beta cells. Format: cell-based. Particulars: for Insulin Content Day 15: HC. How it is done: Beta cells were FACS-purified from islet-cell enriched suspensions (Pipeleers et al., 1985) prepared from neonatal (2-3 days-old) and adolescent or adult (8 or 40-week-old, male) Wistar rats (Janvier Bioservices, France); their purity was, respectively 70-75% and over 90%. Sorted cells were counted in a hemocytometer, seeded (day 0) and cultured for up to 15 days in serum-free Ham's-F10 medium at 5, 10 or 20 mmol/l glucose, supplemented with 2 mmol/l L-glutamine, 50 μM 3-isobutyl-1-methylxanthine, 0.5% Albumax-I, penicillin (100 U/ml) and streptomycin (0.1 mg/ml). The 10 mmol/l glucose condition is known to maintain beta cell survival over 9-days (Ling et al., 1994; Ling and Pipeleers, 1994). Medium and cells were retrieved after selected culture periods and assayed for insulin content; data were expressed as a function of the number of living beta cells that was determined in parallel wells.

The test system of data set [5] is alloxan-diabetic mice. Kind of data set: Implantation of in vitro expanded beta cells in alloxan-diabetic mice. The format is in vivo. How it is done:
FIG. 8. Alloxan-induced diabetes in mice can be reversed with implantation of in vitro-generated beta cells. Sorted beta cells were cultured in control medium or in the presence of HC up to day 9 and then switched to basal condition for the last six days of culture. IPGTT was used to determine glucose clearance rate. Glucose was administered (3 g/kg body weight) by in intraperitoneal injection into a 2 h-fasted animals and blood glucose levels were measured at the indicated time points during the following 120-min. Data are from animals transplanted with control cells (black triangles; n=3), in vitro expanded cells (black squares; n=5) and normal control animals (inverted triangles; n=2).
In this respect was it relevant to adjust culture conditions so that the expanded beta cell mass was not degranulated. We compared the in vivo function and hormone reserve of implants that were formed by equal numbers of beta cells collected from either control or HC-treated preparations, HC being withdrawn for the last 6 days (as in Table 7). At the end of 15 days culture, cell yield after HC was 54 to 110 percent higher than in control (paired cultures from three different islet isolation experiments), thus allowing preparation of more grafts per experiment. Respective grafts contained a similar number of beta cells and a similar total hormone content (for the three experiments between 10 to 15 μg insulin per graft). […] Both also presented an equally rapid normalization of glycemia following an intraperitoneal glucose load with similar kinetics to normal control animals (FIG. 8).

Structures are written as SMILES.

Consider `C[C@]12CCC(=O)C=C1CC[C@@H]1[C@@H]2[C@@H](O)C[C@@]2(C)[C@H]1CC[C@]2(O)C(=O)CO` [Hydrocortisone, hydrocortisone], for which the “alpha cell numbers after 15-day culture (% of the starting level)” value in data set [1] worked out at 57±1%. Moreover, the “proliferation of INS1 832/13 cell line” value in data set [2] is “does not induce the proliferation”. For the same molecule, in data set [3], the Percent viable cells was determined as 97%. In data set [4] (9 days, 6 days, control), the “Insulin Content Day 15” value worked out at 33.1 ± 2.9 ng/10^3 cells. Besides, the “Insulin Content Day 15” value in data set [4] (15 days, control 35.3 ± 3.6) is listed as 9.3 ± 0.7 ng/10^3 cells. Besides, in data set [4] (continuous HC, control 23.7 ± 0.9), the “Insulin Content Day 9” value is recorded as 14.0 ± 1.4 ng/10^3 cells. For the same molecule, in data set [4] (continuous incubation with HC), the “loss of insulin content on day 9” value is given as 56% and the “loss of insulin content on day 15” value is “more than 70%”. The “circulating C-peptide level at week 1 post-transplantation” value in data set [5] (HC group grafts, control 2.3±0.2) is 2.4 ± 0.2 nM. Also, in data set [5] (HC group grafts, control 2.6±0.2), the “circulating C-peptide level at week 5 post-transplantation” value was determined as 2.6 ± 0.4 nM. For the same molecule, the “Insulin Content, Pancreas” value in data set [5] (animals transplanted with cells from proliferation condition (HC up to day 9, then control medium)) came out at 0.7 ± 0.2 μg/sample. In addition, the “Insulin Content, Graft” value in data set [5] (animals transplanted with cells from proliferation condition (HC up to day 9, then control medium), post-transplantation week 4) was determined as 7.2 ± 1.3 μg/sample. In data set [5] (grafts of HC-treated beta cells in abdominal fat pad), the “correction of hyperglycemia after implantation” value was “corrected hyperglycemia within one week”.

For the origin of these results see patent US20160274087A1, “SCREENING ASSAY FOR AGENTS THAT INFLUENCE BETA CELL NUMBER AND/OR PHENOTYPE” (VRIJE UNIVERSITEIT BRUSSEL, priority 2013, published 2016).
